Test results reported in US20080132539A1, “Hydroxamic Acid Derivative And Age Generation Inhibitor Containing The Derivative” (priority 2003, published 2008).

What was measured:
Assay type in all cases: biochemical
[1] = Methyl glyoxal-trapping activity test (DMB derivatisation, HPLC); conditions: 0.02 mM methyl glyoxal, 0.2 mM test compound, PBS, 37° C., 30 minutes
Protocol: (§1) In 0.2 mL of PBS were incubated 0.02 mM of methyl glyoxal and 0.2 mM of test compound at 37° C. for 30 minutes. Subsequently, a volume of 5 mM DMB (1,2-diamino-4,5-methylenedioxy benzene) solution equivalent to 10 μL of the incubation sample was added, followed by further incubation at 4° C. for 7 hours to react the remaining methyl glyoxal with DMB. After the end of reaction, a 0.4 M phosphate buffer solution (pH 7.2) was added for neutralization, followed by quantitating the modified product of methyl glyoxal-DMB using HPLC.
(§2) HPLC having a YMC-Pack Pro C18 column (φ4.6 mm×150 mm) and employing 5 mM sodium phosphate buffer (pH 7.4)-25% acetonitrile as a mobile phase was used at a flow rate of 0.7 mL/min to determine fluorescence strength at Ex352 nm and Em385 nm.
The proportion of methyl glyoxal trapped by the test compound was calculated as % trapping activity, based on the quantitative value of the total modified product of methyl glyoxal-DMB in the absence of the test compound.

[2] = Glyoxal-trapping activity test (DMB derivatisation, HPLC); conditions: 0.02 mM glyoxal, 0.2 mM test compound, PBS, 37° C., 30 minutes
Protocol: as §1, with “of” for “of methyl”
as §2
The proportion of glyoxal trapped by the test compound was calculated as % trapping activity, based on the quantitative value of the total modified product of glyoxal-DMB in the absence of the test compound.

[3] = system: Maillard reaction (lysozyme / fructose, dimer formation); test: Maillard reaction-inhibiting effects (lysozyme dimer formation with fructose, SDS-PAGE densitometry); conditions: 10 mg/mL lysozyme, 200 mM fructose, pH 7.4, 37° C., 4 days, dimer formation inhibition rate
Protocol: This Example examined Maillard reaction-inhibiting effects using, as test compounds, the compounds produced in the above-described Examples and the commercially available substances arginine hydroxamate (Compound No. 111), tyrosine hydroxamate (Compound No. 112), and tryptophan hydroxamate (Compound No. 113). More specifically, 10 mg/mL lysozyme, 200 mM fructose, and each of the above-described test compounds dissolved in a 0.4 mM sodium phosphate buffer (pH 7.4) so as to provide a concentrations of 0.1, 0.3, 1, or 3 mM were incubated at 37° C. for 4 days. After the incubation, the samples were subjected to SDS-PAGE, stained with Coomassie Brilliant Blue R-250, and quantitated for the formed dimmers using a densitometer. The Maillard reaction-inhibiting activity was defined as the dimmer formation inhibition rate of a test compound calculated on the basis that the amount of dimmer is 100% in the absence of the test compound, using, as blank, the amount of dimer in the absence of fructose and the test compound.

[4] = test compound concentration 0.1 mM
[5] = test compound concentration 0.3 mM
[6] = test compound concentration 1 mM
[7] = test compound concentration 3 mM

Row | SMILES | Methyl-glyoxal-trapping activity (% trapping) [1] [% trapping] | Glyoxal-trapping activity (% trapping) [2] [% trapping] | Maillard reaction-inhibiting activity (%) [3, 4] [%] | Maillard reaction-inhibiting activity (%) [3, 5] [%] | Maillard reaction-inhibiting activity (%) [3, 6] [%] | Maillard reaction-inhibiting activity (%) [3, 7] [%]
1 | N[C@@H](Cc1ccc(O)cc1)C(=O)NO [Compound No. 112, tyrosine hydroxamate] | 74.4 ± 2.7 | 67.8 ± 1.2 | 24 | 61 | 99 | 101
2 | CCCn1c(CC[C@H](N)C(=O)NO)nc2cc(Cl)c(Cl)cc21 [Compound No. 95, (S)-2-amino-4-(5,6-dichloro-1-propyl-1H-benzimidazol-2-yl)-N-hydroxybutyramide] | 84.2 ± 0.6 | 65.7 ± 2.2 | 102 | 106 | 107 | 108
